Experimental data reported in patent publication US20120322124A1, “CONTROL OF CONTAMINANT MICROORGANISMS IN FERMENTATION PROCESSES WITH SYNERGISTIC FORMULATIONS CONTAINING STABILIZED CHLORINE DIOXIDE AND QUATERNARY AMMONIUM COMPOUND” (E. I. DU PONT DE NEMOURS AND COMPANY, priority 2010, published 2012).

Key:
Assay type in all cases: cell-based
Viable bacteria = assay: Bench-scale successive fermentations with yeast recycle stream from a molasses-based ethanol plant, viable bacteria enumerated
Method: In this example, samples of recycle streams comprising primarily inoculant yeast were collected from a molasses-based ethanol plant in Brazil. The samples were used to complete bench-scale fermentations in which the samples were treated with a combination of SCD (FermaSure® fermentation additive, E. I. du Pont de Nemours and Co., Wilmington Del.) with didecyl dimethyl ammonium chloride (BTC 1010, a solution of didecyl dimethyl ammonium chloride, DDAC, same as in Example 1), as quaternary compound. The treated samples were used to carry out successive 8-hour long fermentations, using recovered yeast at the end of each cycle to begin the next run. Viable bacteria were enumerated over 5 fermentation cycles. Results are provided in Table 3 where ND means the combination was not tested.

Lactobacillus brevis = assay: Checkerboard assay of SCD with a quaternary ammonium compound against Lactobacillus brevis; set-up: key: no inhibition of growth (NI); partial inhibition (PI); complete inhibition (CI); settings: SCD 0 ppm, MRS broth pH 5.5, 28 hours at 32° C.
Excerpt: In this example, stabilized chlorine dioxide (SCD) and a quaternary ammonium chloride (QAC) mixture were used in a checkerboard assay to determine whether their interaction was synergistic against Lactobacillus brevis. The checkerboard assay method is used to analyze interactions between compounds by mixing them in increasing concentrations to determine whether the compounds act synergistically, additively or antagonistically. (See, M. Najjar, D. Kashtanov, M Chikindas, Letters in Applied Microbiology, vol. 45 (2007) 13-18.) L. brevis was cultured overnight in MRS broth (deMan Rogosa and Sharp broth, Difco Laboratories, Inc., Sparks, M.D.) at 32° C. The culture was then diluted and resuspended in fresh MRS broth adjusted to pH 5.5. The number of bacteria in the resuspended culture was determined using standard plate counts. Samples were diluted (1:10) in sterile phosphate-buffered saline (Sigma-Aldrich Co., St. Louis, Mo.) and plated onto the surface of MRS plates. The resuspended culture […] was then used to fill the wells of a 96 well plate (Becton, Dickinson and Co., Franklin Lakes, N.J.). SCD (FermaSure® fermentation additive, E. I. du Pont de Nemours and Co., Wilmington Del.) and a quaternary ammonium compound (BTC 1010, a solution of didecyl dimethyl ammonium chloride, DDAC, Stepan Company, Northfield, Ill.) were then added at the concentrations shown in the “checkerboard” plate diagram below. The plate was covered and incubated for 28 hours at 32° C. Following incubation, the plate was removed and the optical density of each well was determined using a plate reader at 630 nm (PowerWave, BioTek Instruments Inc., Winooski, Vt.). Based on the optical density, each well was scored to determine whether there was no inhibition of growth (NI), partial inhibition (PI), or complete inhibition (CI).
To determine whether any synergistic activity occurred between SCD and the quaternary ammonium compound, the fractional inhibitory concentration (FIC) was determined using the formula:
FIC=[SCD]/MICSCD+[DDAC]/MICDDAC
where [SCD] and [DDAC] are the concentrations of SCD and BTC 1010 that result in partial inhibition and MICSCD and MICDDAC are the minimum inhibitor concentration of SCD and DDAC, respectively. Synergy between the two antimicrobials is determined when the resulting FIC is <1.0.
In this example, SCD (FermaSure® fermentation additive, E. I. du Pont de Nemours and Co., Wilmington Del.) and a second quaternary ammonium compound (BTC 2125, a mixture of n-alkyl dimethyl benzyl ammonium chlorides and n-alkyl dimethyl ethylbenzyl ammonium chlorides, ADBAC/ADEBAC, Stepan Company, Northfield, Ill.) were used in a checkerboard assay to determine whether their interaction was synergistic against Lactobacillus brevis. L. brevis was cultured as above, resuspended in MRS at pH 5.5, and then added […] the wells of a 96 well plate (Becton Dickinson, Franklin Lakes, N.J.). […] Following incubation, the plate was removed and the optical density of each well was determined using a plate reader at 630 nm. Based on the optical density, each well was scored to determine whether there was no inhibition (NI), partial inhibition (PI), or complete inhibition (CI).
To determine whether any synergistic activity occurred between SCD and the ADBAC/ADEBAC quaternary ammonium compound, the fractional inhibitory concentration (FIC) was determined as above using the formula: […]

lactic acid bacteria = assay: Molasses-based recycle stream treated with SCD, QAC or both: viable bacteria
Method: (§1) In this example, a molasses-based fermentation medium was prepared and inoculated with both yeast and lactic acid bacteria. The medium comprised various components as follows:
(§2) Following inoculation, the mixed culture was grown overnight in the molasses medium, after which a recycle stream was prepared by centrifuging the broth at 3000 rpm for 5 minutes. The resulting pellet was separated from the supernatant and reconstituted using sterile deionized water, then adjusted to pH 3.0 using sulfuric acid. 5 ml portions of the reconstituted pellet were then treated as follows: • 1. Untreated • 2. QAC only (60 ppm) • 3. SCD (45 ppm) • 4. SCD/QAC (45 ppm/60 ppm)
(§3) The SCD was FermaSure® fermentation additive, E. I. du Pont de Nemours and Co., Wilmington Del. The quaternary ammonium compound (QAC) was the same DDAC (BTC 1010, Stepan Company, Northfield, Ill.) as used in Example 1.
(§4) Samples were stored in a shaking incubator at 32° C. for 2 hours following which 0.1 ml aliquots were serially diluted and plated on selective media to enumerate surviving yeast and bacteria cells. […] Following this cycle, the SCD and SCD/QAC treated samples were centrifuged as before, and the number of viable yeast and bacterial cells in the resulting pellet was determined.

yeast = assay: Molasses-based recycle stream treated with SCD, QAC or both: viable yeast; settings: QAC only (60 ppm), pH 3.0, 32° C.
Method: as §1, §2, §3, §4

[1] = SCD 0 ppm, DDAC 60 ppm, yeast recycle stream, 8-hour fermentations

CCCCCCCCCC[N+](C)(C)CCCCCCCCCC.[Cl-] [DDAC, didecyl dimethyl ammonium chloride]
Log Viable Bacteria Cycle 1 (Viable bacteria; [1]): 7.79
Log Viable Bacteria Cycle 2 (Viable bacteria; [1]): 7.97
efficacy against viable bacteria, in words (Viable bacteria; treatments of Table 3 (45 ppm SCD and 60 ppm DDAC; 60 ppm DDAC alone), through 5 cycles of fermentation): did not result in any significant inactivation of bacteria
inhibition of growth score based on optical density at 630 nm (Lactobacillus brevis; DDAC 2 ppm): PI
inhibition of growth score based on optical density at 630 nm (Lactobacillus brevis; DDAC 4 ppm): PI
inhibition of growth score based on optical density at 630 nm (Lactobacillus brevis; DDAC 5 ppm): PI
inhibition of growth score based on optical density at 630 nm (Lactobacillus brevis; DDAC 6 ppm): PI
inhibition of growth score based on optical density at 630 nm (Lactobacillus brevis; DDAC 7 ppm): CI
Viable Cells (2 hrs) Bacteria (lactic acid bacteria; QAC only (60 ppm), pH 3.0, 32° C., 2 hours): 8.1 logCFU per milliliter
number of viable bacteria, in words (lactic acid bacteria; treatments of Table 4 (QAC 60 ppm, SCD 45 ppm, SCD/QAC 45 ppm/60 ppm)): did not result in any reduction in viable bacterial cells
Viable Cells (2 hrs) Yeast (yeast): 8.8 logCFU per milliliter
